Test results reported in US11185516B2 (Laboratorios Silanes S.A. DE C.V., priority 2016, dated 2021).
Structures can show the parent of a compound that is named as a salt.

Legend:
C2C12 myotubes = experiment: Glucose concentration of C2C12 myotube cultures in M1 macrophage conditioned media; assay type: cell-based, mouse; conditions: macrophages treated with 10 mM for 2 h, then LPS/IFNγ 16 h
Method: There is considerable evidence showing that inflammation and hyperglycemia are interconnected: inflammation induces hyperglycemia and reciprocally hyperglycemia induces inflammation with the molecular bases not elucidated yet. To explore the participation of GPBP, glucose intake under normoglycemic conditions with conditioned media generated by macrophages differentiated to a proinflammatory M1 phenotype was monitored.
[…]. The glucose concentration of the myotube cultures was determined at different times with Glucocard (Arkray). The controls used were the C2C12 cultured with media conditioned with no stimulated macrophages (Cells) or with M1 conditioned media (M1). The initial glucose levels (time 0) were used as a reference (100%) in each series.

AS160 = experiment: In vitro AS160 phosphorylation in the presence of GPBP, AMPK and AKT; assay type: biochemical; conditions: 5 mM, with FLAG-GPBP, AKT, AMPK
Method: The reactions (25 μL) were carried out at 30° C., and stirred (350 rpm) for 15 min. Then, they were stopped with a reducing loading buffer, heated (95° C., 2 min), and analyzed using electrophoresis, electrotransfer, and autoradiography.

GLUT4 = GLUT4 translocation (FIG. 19A)
GPBP = target: T1, GPBP (Homo sapiens, UniProt Q9Y5P4); conditions: 1 mM, 24 h
T1 sequence (Q9Y5P4 1-624): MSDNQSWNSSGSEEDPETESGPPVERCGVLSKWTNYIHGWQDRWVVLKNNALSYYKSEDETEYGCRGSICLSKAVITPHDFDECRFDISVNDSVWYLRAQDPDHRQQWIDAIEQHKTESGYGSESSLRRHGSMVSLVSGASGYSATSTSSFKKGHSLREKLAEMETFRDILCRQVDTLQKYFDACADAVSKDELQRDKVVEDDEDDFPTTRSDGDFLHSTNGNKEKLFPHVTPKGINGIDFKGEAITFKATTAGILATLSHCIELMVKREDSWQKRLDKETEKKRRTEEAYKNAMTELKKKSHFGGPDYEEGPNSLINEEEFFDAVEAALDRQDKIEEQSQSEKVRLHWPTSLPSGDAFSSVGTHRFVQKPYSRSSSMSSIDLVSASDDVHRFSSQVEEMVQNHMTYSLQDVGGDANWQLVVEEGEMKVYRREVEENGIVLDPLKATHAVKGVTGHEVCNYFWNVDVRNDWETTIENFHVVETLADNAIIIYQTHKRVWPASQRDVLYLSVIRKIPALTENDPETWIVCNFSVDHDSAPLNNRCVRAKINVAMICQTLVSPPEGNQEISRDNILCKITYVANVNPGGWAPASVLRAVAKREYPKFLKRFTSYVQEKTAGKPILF

IRS2−/− (KO) mice = experiment: Fasting glycemia and insulinemia in female IRS2−/− mice; assay type: in vivo, mouse; conditions: 4 weeks
Description: Insulin resistance characterizes type 2 diabetes, obesity, and the metabolic syndrome. Thus, insulin sensitivity is a major therapeutic objective for these metabolic diseases. Insulin receptor substrate (IRS) proteins regulate the physiological actions of insulin upon binding to the receptor. Specific deletion of IRS2 in mice produces diabetes due to a developmental reduction of the pancreatic β-cell mass and the inability of existing β-cells to expand in response to peripheral insulin resistance. Additionally, IRS2-deficiency in mice causes hepatic insulin resistance concurrent with failed suppression of hepatic glucose production. While male IRS2−/− mice often die of diabetic complications by 12 weeks of age, females IRS2−/− mice develop a milder form of diabetes and many live up to 6 months. The observation that female IRS2−/− mice eat more than controls led to the discovery that this molecule is critical for hypothalamic regulation of food intake.
The mean glycemic values are represented per group (n=3) pre-treatment (black bars) and post-treatment (gray bars) along with their standard deviations. […] The fasting serum insulin levels taken pre-treatment (black bars) and post-treatment (gray bars) were determined using a kit (Millipore), following the manufacturer's instructions. Mean values and standard deviations are presented for each group (n=3) (FIG. 12D).
Due to peripheral resistance to insulin, the IRS2−/− mice also develop hyperinsulinemia.

[1] = test system: IRS2 knockout mice (KO IRS2); experiment: Serum triglycerides in IRS2 knockout mice; assay type: in vivo, mouse; conditions: 100 mg/kg/day, 8 weeks, fasting
Method: At the 8-week treatment time point, there were 8 mice in each of the WT groups, 6 mice in the KO IRS2 untreated control group, 7 mice in the KO IRS2 SLN1 treated group, and 8 mice in the KO SLN2 treated group. Blood was collected at the time of sacrifice and used to measure TG under fasting conditions. […] Statistical differences between the experimental groups shown in FIG. 21 were assessed by Student's T test. P value of <0.05 is indicated by *.

C57BL/6 mice = experiment: Glycemia and dietary intake in C57BL/6 mice; assay type: in vivo, mouse; conditions: 1 week
Description: The mean glycemic values at the beginning and end of the experiment are represented for each group (n=3) with their standard deviations.

[2] = test system: proIL-1β, TNFα, iNOS, IL-6, MCP-1 and IL-12; experiment: Inflammation marker expression in palmitate-stimulated L1 adipocytes (RT-qPCR); assay type: cell-based; conditions: 10 mM, palmitate 500 μM, 24 h
Method: Palmitate is a saturated fatty acid that simulates an experimental obese state. It can be used as a pro-inflammatory stimulant for cytokines such as proIL-1β, TNFα, iNOS, IL-6, MCP-1 and IL-12.
Next, the relative expression of inflammation markers was analyzed by RT and qPCR using HPRT-1 as a normalizer and the untreated cell expression levels as a reference (for MCP-1 and IL-12) or those treated palmitate. After the treatments, culture media were collected and subsequently analyzed, cells were washed with PBS, and RNA was extracted (illustra RNAspin Mini, GE Healthcare) and reverse transcribed (High Capacity cDNA Reverse Transcription Kit, Life Technologies). The expression of the genes that were the object of the study was analyzed by qPCR using specific probes (TaqMan® Gene Expression Assays, Life Technologies). The relative expression (RQ), represented in the figure, was calculated by the ΔΔCt method.

VAPA and VAMPs = experiment: Colocalization of VAPA and VAMPs (FIG. 18)
[3] = test system: IRS2 knockout mice (KO IRS2); experiment: Body weight in IRS2 knockout mice; assay type: in vivo, mouse; conditions: 100 mg/kg/day, 8 weeks
Method: Body weight of the mice was measured prior to the onset of treatment, at 4 weeks after treatment, and at 8 weeks after treatment. There were 8 mice in each group at the pre-treatment and 4-week treatment time points. […] Statistical differences between the experimental groups shown in FIG. 20 were assessed by Student's T test. P value of <0.05 is indicated by *.

[4] = Stage B, ANOVA of repeated measures
clinical [5] = conditions: both, human, in vivo, oral
clinical [6] = conditions: both, human, in vivo

Row | SMILES | glucose levels of myotube cultures (hyperglycemic levels) (C2C12 myotubes) | phosphorylation of AS160 (AS160) | GLUT4 translocation (GLUT4) | high molecular weight GPBP aggregates (GPBP) | fasting glycemia post-treatment (IRS2−/− (KO) mice; 100 mg/kg/day with food, 10-12 weeks old) | fasting insulin levels (IRS2−/− (KO) mice; 100 mg/kg/day) | serum triglycerides compared to untreated KO IRS2 [1] | glycemia, end vs beginning (C57BL/6 mice; 100 mg/kg/day mixed with solid food, n=3) | food intake compared to untreated mice (C57BL/6 mice; 100 mg/kg/day) | inflammatory response of palmitate-stimulated adipocytes [2] | colocalization of VAPA and VAMPS (VAPA and VAMPs) | colocalization of VAPA and VAMPS, comparison SLN1 vs SLN2 (VAPA and VAMPs) | average body weight, post- vs pre-treatment [3] | Ln AUCt, Ln AUC12 and Ln AUC0, differences attributed to formula, period and sequence factors [4] | Ln Cmax, differences attributed to formula, period and sequence factors [4] | Ln Cmin, differences attributed to formula, period and sequence factors [4] | AUC (clinical [5]) | AUC (clinical [5]; 1240 mg) | AUC (clinical [6])
1 | CN(C)C(=N)N=C(N)N [Metformin hydrochloride, metformin hydrochloride, reference compound] | slowed down the progression towards hyperglycemia | inhibited AS160 phosphorylation | failed to do so | not present | slightly lower, though not statistically significant | higher than at the initiation of the experiment | lower | significantly reduced glycemia | food intake was greater | attenuated the inflammatory response | reduced colocalization | greater reduction effect | not significantly different | – | – | – | – | – | –
2 | CN(C)C(=N)N=C(N)N [Metformin, metformin] | – | – | – | – | – | – | – | – | – | – | – | – | – | did not show statistically significant differences | did not show statistically significant differences | did not show statistically significant differences | 119 to 134 µg·h/mL | 76.1 to 92.5 µg·h/mL | 92.4 to 109 µg·h/mL
